target: T1, ACC (acetyl CoA carboxylase) purified from liver of male SD rat (Rattus norvegicus, UniProt P11497); experiment: Measurement of ACC inhibition activity ([14C]-NaHCO3 incorporation); assay type: biochemical; conditions: ACC inhibition activity rate at 1 μM; Table 2-III, Mode 3 acetylene/oxadiazole/thiazole compounds (numbers = x-III); read-out: ACC Inhibition (%)
T1 construct: applied to a monomeric avidin sepharose column, and washed with buffer B. The ACC was eluted with buffer B containing 2 mM d-biotin; from tissue; host or cells: liver of male SD rat
How it was run: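 Enzyme was avidin-purified from livers of rats fasted and then sucrose-fed. Compounds were preincubated with ACC for 30 min at 37° C in Tris-HCl pH 7.5 with MgCl2, citrate and DTT. [14C]-NaHCO3 solution with 8 mM ATP and 0.5 mM acetyl CoA was added for 10 min at 37° C. Acid-stable 14C gave % inhibition at 1 μM.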

inhibition at 1 µM [%] | Structure (SMILES)
52 | O=C(O)c1ccccc1C(=O)Nc1ccc(-c2csc(-c3cc(C(F)(F)F)ccc3F)n2)cc1 [compound 99]
63 | O=C(Nc1ccc(-c2csc(-c3ccccc3)n2)cc1)N[C@H](Cc1ccccc1)C(=O)O [compound 103]
66 | O=C(O)CCC(NC(=O)OCc1ccccc1)C(=O)Nc1ccc(-c2csc(-c3ccccc3)n2)cc1 (centres unmarked) [compound 104]
99 | CC(C)c1ccc(S(=O)(=O)NC(=O)c2ccc(-c3csc(-c4ccc(C#Cc5cccc(C(F)(F)F)c5)cc4)n3)cc2)cc1 [compound 105]
97 | CC(C)c1ccc(S(=O)(=O)NC(=O)c2cccc(-c3nc(-c4ccc(-c5csc(-c6ccc(C(F)(F)F)cc6)n5)cc4)no3)c2)cc1 [compound 106]
100 | CC(C)c1ccc(S(=O)(=O)NC(=O)c2ccc(-c3nc(-c4ccc(-c5csc(-c6ccc(C(F)(F)F)cc6)n5)cc4)no3)cc2)cc1 [compound 107]
60 | CC(C)c1ccc(S(=O)(=O)NC(=O)c2ccc3c(c2)CN(c2cccc(-c4csc(-c5ccccc5)n4)c2)C3)cc1 [compound 118]
88 | CC(C)c1ccc(S(=O)(=O)NC(=O)C(Cc2ccccc2)NC(=O)Nc2ccc(-c3csc(-c4ccccc4)n3)cc2)cc1 (centres unmarked) [compound 130]

same assay, conditions: ACC inhibition activity rate at 1 μM; Table 3-I, Mode 1 quinoline compounds (numbers = x-I); read-out: ACC Inhibition (%)

inhibition at 1 µM [%] | Structure (SMILES)
45 | CCCCS(=O)(=O)NC(=O)CC(NC(=O)c1ccc2nc(-c3cc(C(F)(F)F)cc(C(F)(F)F)c3)ccc2c1)c1cccc(N)c1 (centres unmarked) [compound 102]
50 | CCCCCC(=O)NS(=O)(=O)c1ccccc1NC(=O)c1ccc2nc(-c3cc(C(F)(F)F)cc(C(F)(F)F)c3)c(CCCl)cc2c1 [compound 103]
90 | CCCCCC(=O)NS(=O)(=O)c1ccccc1NC(=O)c1ccc2nc(-c3cc(C(F)(F)F)ccc3F)ccc2c1 [compound 107]
61 | CCCCCC(=O)NS(=O)(=O)c1ccccc1NC(=O)c1ccc2nc(-c3cccc(SC(F)(F)F)c3)ccc2c1 [compound 109]
50 | CCCCCC(=O)NS(=O)(=O)c1ccccc1NC(=O)c1ccc2nc(-c3cccc(C(F)(F)F)c3F)ccc2c1 [compound 110]
97 | CC(C)c1ccc(S(=O)(=O)NC(=O)c2ccccc2-c2csc(-c3ccc4nc(-c5cc(C(F)(F)F)cc(C(F)(F)F)c5)ccc4c3)n2)cc1 [compound 115]

same assay, conditions: ACC inhibition activity rate at 1 μM; Table 4-IV, Mode 4 benzenediamine compounds (numbers = x-IV); read-out: ACC Inhibition (%)

inhibition at 1 µM [%] | Structure (SMILES)
100 | COc1cccc(CNc2cc(-c3noc(-c4cccc(C(=O)NS(=O)(=O)c5ccccc5)c4)n3)ccc2N(C)CCC(C)C)c1 [compound 98]
72 | CC(C)CCN(C)c1ccc(-c2noc(-c3cccc(C(=O)NS(=O)(=O)c4ccccc4)c3)n2)cc1NCc1cccc(C(=O)O)c1 [compound 100]
100 | CC(C)CCN(C)c1ccc(-c2noc(-c3cccc(C(=O)NS(=O)(=O)c4ccccc4)c3)n2)cc1NCc1cccc(F)c1 [compound 101]
100 | CC(C)CCN(C)c1ccc(-c2noc(-c3cccc(C(=O)NS(=O)(=O)c4ccccc4)c3)n2)cc1NCc1ccc2ccccc2c1 [compound 102]
100 | Cc1ccccc1S(=O)(=O)NC(=O)c1cccc(-c2nc(-c3ccc(N(C)CCC(C)C)c(NCc4ccccc4)c3)no2)c1 [compound 103]
100 | CC(C)CCN(C)c1ccc(-c2noc(-c3cccc(C(=O)NS(=O)(=O)c4ccccc4)c3)n2)cc1NC(C)c1ccccc1 (centres unmarked) [compound 106]
100 | Cc1ccccc1S(=O)(=O)NC(=O)c1cccc(-c2nc(-c3ccc(N(C)CCC(C)C)c(NC(C)c4ccccc4)c3)no2)c1 (centres unmarked) [compound 107]
75 | CC(C)CCN(C)c1ccc(C(=O)NC(CC(=O)NS(=O)(=O)c2ccccc2)c2ccccc2)cc1NCc1ccccc1 (centres unmarked) [compound 112]
97 | CC(C)CCN(C)c1ccc(-c2noc(-c3cccc(C(=O)NS(=O)(=O)c4ccccc4)c3)n2)cc1NCc1ccc(OCCO)cc1 [compound 113]
77 | CC(C)CCN(C)c1ccc(-c2noc(-c3cccc(C(=O)NS(=O)(=O)c4ccccc4)c3)n2)cc1NCc1cc(O)cc(O)c1 [compound 114]
100 | CSc1ccccc1CNc1cc(-c2noc(-c3cccc(C(=O)NS(=O)(=O)c4ccccc4)c3)n2)ccc1N(C)CCC(C)C [compound 115]
93 | Cc1ccccc1S(=O)(=O)NC(=O)CC(NC(=O)c1ccc(N(C)CCC(C)C)c(N(C)Cc2ccccc2)c1)C1CCCCC1 (centres unmarked) [compound 118]
94 | Cc1ccccc1S(=O)(=O)NC(=O)CC(NC(=O)c1ccc(N(C)CCC(C)C)c(N(C)CC2CCCCC2)c1)C1CCCCC1 (centres unmarked) [compound 119]
90 | CC(C)CCN(C)c1ccc(C(=O)NC(CC(=O)NS(=O)(=O)c2ccccc2)c2ccccc2)cc1N(C)Cc1ccccc1 (centres unmarked) [compound 121]
67 | Cc1ccccc1S(=O)(=O)NC(=O)CC(NC(=O)c1ccc(N(C)CCC(C)C)c(NCc2ccccc2O)c1)C1CCCCC1 (centres unmarked) [compound 122]
64 | Cc1ccccc1S(=O)(=O)NC(=O)CC(NC(=O)c1ccc(N(C)CCC(C)C)c(NCc2ccccc2[N+](=O)[O-])c1)C1CCCCC1 (centres unmarked) [compound 124]
98 | Cc1ccccc1S(=O)(=O)NC(=O)CC(NC(=O)c1ccc(N(C)CCC(C)C)c(NCCc2ccccc2)c1)C1CCCCC1 (centres unmarked) [compound 125]
91 | Cc1ccccc1S(=O)(=O)NC(=O)CC(NC(=O)c1ccc(N(C)CCC(C)C)c(NCC2CCCC2)c1)C1CCCCC1 (centres unmarked) [compound 126]
92 | Cc1ccccc1S(=O)(=O)NC(=O)c1cccc(-c2nc(-c3ccc(N(C)CCC(C)C)c(N4Cc5ccccc5C4=O)c3)no2)c1 [compound 127]
100 | Cc1ccccc1S(=O)(=O)NC(=O)c1cccc(-c2nc(-c3ccc(N(C)CCC(C)C)c(N4COc5ccccc5C4)c3)no2)c1 [compound 128]
100 | Cc1ccccc1S(=O)(=O)NC(=O)c1cccc(-c2nc(-c3ccc(N(C)CCC(C)C)c(NCc4ccccc4[N+](=O)[O-])c3)no2)c1 [compound 129]
